Source: ChEMBL document CHEMBL4706689, “Synthesis and antifungal activity of polycyclic pyridone derivatives with anti-hyphal and biofilm formation activity against Candida albicans” (2021)
The source made the active and inactive calls. No cut-off for these calls is given here.

Tests used:
Candida albicans [1] = test: Inhibition of hyphal formation in Candida albicans SC5314 cultured in spider medium assessed as reduction in hyphal length at 25 ug/ml relative to control; assay type: functional
Candida albicans [2] = test: Inhibition of hyphal formation in Candida albicans SC5314 cultured in spider medium assessed as reduction in hyphal length; assay type: functional, organism-based; settings: dose 3.12-25 µg/ml
Candida albicans [3] = test: Inhibition of biofilm formation in Candida albicans SC5314 at 25 ug/ml by XTT assay relative to control; assay type: functional
Candida albicans [4] = test: Inhibition of biofilm formation in Candida albicans SC5314 at 6.25 to 25 ug/ml by XTT assay; assay type: functional, organism-based; settings: dose 6.25-25 µg/ml
Candida albicans [5] = test: Inhibition of biofilm formation in Candida albicans SC5314 by XTT assay; assay type: functional, organism-based

Row | SMILES | inhibition at 25 µg/mL (Candida albicans [1]) | inhibition (Candida albicans [2]) | inhibition at 25 µg/mL (Candida albicans [3]) | inhibition (Candida albicans [4]) | inhibition (Candida albicans [5])
1 | C[C@H]1Oc2c(-c3cccs3)c(Cl)[nH]c(=O)c2[C@H]2c3ccccc3OC[C@H]21 | 30% | – | – | – | –
2 | Cc1ccc(-c2c[nH]c(=O)c3c2OC(C)(C)C=C3)cc1 | > 50% | Dose-dependent effect | 17.9% | – | –
3 | CC1(C)C=Cc2c(c(-c3ccccc3)c(Cl)[nH]c2=O)O1 | 30% | – | – | – | –
4 | Cc1ccc(-c2c(Cl)[nH]c(=O)c3c2OC(C)(C)C=C3)cc1 | 30% | – | – | – | –
5 | CC1(C)C=Cc2c(c(-c3cccs3)c(Cl)[nH]c2=O)O1 | > 50% | Dose-dependent effect | – | Active | –
6 | C[C@H]1CC[C@H]2[C@H](C1)c1c(c(-c3cccs3)c(Cl)[nH]c1=O)OC2(C)C | 30% | – | – | – | –
7 | CC(C)=CCC1(C)C=Cc2c(c(-c3ccc(C)cc3)c(Cl)[nH]c2=O)O1 (stereo not drawn) | 30% | – | – | – | –
8 | CC1(C)C=Cc2c(c(-c3ccccc3)c[nH]c2=O)O1 | > 50% | Dose-dependent effect | 18.7% | – | –
9 | Cc1ccc(-c2c(Cl)[nH]c(=O)c3c2O[C@H](C)[C@@H]2COc4ccccc4[C@H]32)cc1 | > 50% | Dose-dependent effect | – | – | inactive
10 | CC(C)=CC[C@]1(C)Oc2c(-c3ccc(C)cc3)c(Cl)[nH]c(=O)c2[C@H]2c3ccccc3OC[C@H]21 | 30% | – | – | – | –
